The record followed here is US6579679B1, “Method for examining central nervous system diseases and method for screening remedies” (Tanabe Seiyaku Co., Ltd., priority 1998, dated 2003).

In test [1] the test system is PS-2 splicing variant lacking exon 5. The test can be described thus: Effect of drug on induction of expression of PS-2 splicing variants in human nerve cells under hypoxic conditions (RT-PCR, gel electrophoresis). The format is cell-based. Particulars: human neuroblastoma SK-N-SH cells, low oxygen 16 hours; cycloheximide 0.2 or 1 μg/ml, N-acetyl-L-cysteine 2 or 10 μM, diphenylene iodonium chloride 5 or 20 μM; FIG. 5.

Test [2] has as its system PS-2 splicing variants (5′-terminal fragment). The test can be described thus: Detection of PS-2 splicing variants in human nerve cells after β-amyloid stimulation or hydrogen peroxide addition (RT-PCR, gel electrophoresis). The format is cell-based. Particulars: SK-N-SH cells; Aβ25-35 0.5 or 5 μM for 16 hours; H2O2 44 or 440 μM for 2 hours; FIG. 2. The procedure:
After culturing human neuroblastoma SK-N-SH cells (ATCC HTB-11) in α-MEM medium (α-Minimum Essential Medium; available from GIBCO CO.) containing 10% fetal bovine serum in a 10 cm diameter culture plates at 37° C. for about 48 hours in a CO2 incubator to a confluent state, the medium was replaced with the same medium not containing fetal bovine serum followed by additional culturing for about 2 hours.
The above cultured cells were additionally cultured under the conditions (i) to (iv) indicated below (culturing was continued for an additional 16 hours under the same conditions as above for the control).
(iii) β-amyloid stimulation: Aβ25-35 (available from Sigma Co.) was added to the medium to a final concentration of 0.5 μM or 5 μM followed by incubating for 16 hours. […]
Using, the RNA (total RNA, 1 μg) obtained in section (1) above as template, this RNA was allowed to react for 1 hour at 42° C. in 0.05 ml of a buffer (0.05 M Tris-HCl, pH 8.3, 0.075 MN KCl, 0.003 M MgCl2, DTT and 0.0002 M deoxynucleotides) containing oligo dT primer (50 pmole), random oligonucleotide (5 pmole) and reverse transcriptase (available from Promega Co., Moloney leukaemia virus reverse transcriptase) (200 units) to synthesize single-strand cDNA. Using the resulting single-strand cDNA, splicing variants were detected by polymerase chain reaction (PCR) in the manner described below. […]

For the compound `C[C@@H]1C[C@@H]([C@H](O)CC2CC(=O)NC(=O)C2)C(=O)[C@@H](C)C1` [cycloheximide], the “expression of a splicing variant lacking exon 5 induced by hypoxic treatment” value (“expression” for short) in test [1] is reported as “inhibited”.

Regarding `CC(=O)N[C@@H](CS)C(=O)O` [N-acetyl-L-cysteine], the “expression” value in test [1] is given as “inhibited”.

On to “β-amyloid: partial peptide consisting of the 25th to 35th amino acid residues of β-amyloid protein (GSNKGAIIGLM; Amyloid-beta protein 42; UniProt P05067 696-706, looked up, fragment)”, for which, in test [2], the “bands not observed in the control, PCR of the 5′-terminal fragment of PS-2 (induced splicing variants)” value was “two bands each not observed in the control”.

With `c1ccc2c(c1)[I+]c1ccccc1-2` [diphenylene iodonium chloride], the “expression” value in test [1] was “inhibited”.

`OO` [hydrogen peroxide]: the “bands not observed in the control, PCR of the 5′-terminal fragment of PS-2 (induced splicing variants)” value in test [2] was “three bands not observed in the control”.
